Among the data in ChEMBL document CHEMBL2150986, “Synthesis and biological evaluation of 1-benzylidene-3,4-dihydronaphthalen-2-one as a new class of microtubule-targeting agents” (J Med Chem, 2012) are IC50 values, retold here.

By IC50 is commonly meant the concentration at which inhibition is half-maximal.

Structures are written as SMILES.

One test deals with CCRF-CEM. Briefly: Cytotoxicity against human CEM cells after 72 hrs by MTT assay. The class given is functional, cell-based. Background: Tetrazolium assays rely on reduction of a dye to a coloured formazan, in cell work by metabolically active cells.
Another test deals with HCT-116. Briefly: cells. The conditions noted are these: Homo sapiens, HCT-116, 72 h.
The subject of another test is MDA-MB-435. As to the kind of experiment: cells. The note with it: Homo sapiens, MDA-MB-435, 72 h.

Description for MDA-MB-435: Cytotoxicity against human MDA-MB-435 cells after 72 hrs by MTT assay

Turning to `COc1cccc2c1CCC(=O)/C2=C/c1ccc(O)cc1`, the figures for the IC50 with CCRF-CEM, in the test with HCT-116 and in the test with MDA-MB-435 were 4.32 µM, 2.69 µM and 1540 nM, respectively.
Regarding `COc1cc(/C=C2/C(=O)CCc3c(OC)cccc32)cc(OC)c1`, the IC50 with CCRF-CEM is over 10 µM; in the test on HCT-116, 5.67 µM; with MDA-MB-435 it was 3950 nM.
With `COc1ccc2c(c1)/C(=C\c1ccc(OC)c(OC)c1)C(=O)CC2`, the results for the concentration for half-maximal inhibition (IC50) in the test on CCRF-CEM, in the test on HCT-116 and in the test with MDA-MB-435 were 0.27 µM, 1.32 µM and 890 nM, respectively.
For the compound `COc1ccc(/C=C2/C(=O)CCc3c(OC)cccc32)cc1OC`, the IC50 stood at 1.35 µM in the test on CCRF-CEM, 2.12 µM with HCT-116 and 1540 nM with MDA-MB-435.
Regarding `COc1ccc2c(c1)/C(=C\c1ccc(OC)c(O)c1)C(=O)CC2`, the IC50 stood at 1.42 µM with CCRF-CEM, 1.37 µM with HCT-116 and 1050 nM in the test on MDA-MB-435.
Taken in the same sequence, the figures for `COc1ccc2c(c1)/C(=C\c1ccc(N(C)C)cc1)C(=O)CC2` were over 10 µM, over 10 µM and over 10000 nM.
Regarding `COc1cccc2c1CCC(=O)/C2=C/c1ccc(Cl)cc1Cl`, the IC50 is over 10 µM in the test with CCRF-CEM, 7.14 µM with HCT-116 and 9320 nM in the test with MDA-MB-435.
Consider `COc1ccc2c(c1)/C(=C\c1cccc(O)c1)C(=O)CC2`, for which the results for the IC50 with CCRF-CEM, in the test on HCT-116 and with MDA-MB-435 were 2.57 µM, 4.91 µM and 2070 nM, respectively.
As to `COc1ccc2c(c1)CCC(=O)/C2=C/c1ccc(Cl)cc1`, the IC50 in the test with CCRF-CEM worked out at 0.95 µM; in the test on HCT-116, 1.25 µM; with MDA-MB-435, 890 nM.
On to `COc1ccc2c(c1)/C(=C\c1ccccc1Cl)C(=O)CC2`, for which the IC50 in the test with CCRF-CEM was found to be 5.26 µM; in the test on HCT-116, 2.35 µM; in the test with MDA-MB-435, 1680 nM.
As for `COc1ccc2c(c1)/C(=C\c1ccccc1)C(=O)CC2`, the values for the IC50 in the test with CCRF-CEM, in the test on HCT-116 and with MDA-MB-435 were 1.53 µM, 3.21 µM and 1450 nM, respectively.
As for `COc1ccc2c(c1)CCC(=O)/C2=C/c1ccc(Br)cc1`, the IC50 was determined as 1.52 µM in the test on CCRF-CEM, 2.94 µM in the test on HCT-116 and 1120 nM in the test with MDA-MB-435.
`COc1cccc2c1CCC(=O)/C2=C/c1ccc(C(C)(C)C)cc1`: the values for the IC50 with CCRF-CEM, in the test on HCT-116 and in the test with MDA-MB-435 were over 10 µM, over 10 µM and over 10000 nM, respectively.
As for `COc1cc(/C=C2/C(=O)CCc3c(OC)cccc32)ccc1O`, the IC50 in the test with CCRF-CEM was over 10 µM; with HCT-116 it was over 10 µM; in the test with MDA-MB-435, 8630 nM.
With `COc1ccc2c(c1)/C(=C\c1ccc(OC)c(OC)c1OC)C(=O)CC2`, the IC50 with CCRF-CEM was 4.21 µM; in the test with HCT-116, 2.68 µM; with MDA-MB-435, 1350 nM.
As to `COc1cccc2c1CCC(=O)/C2=C/c1ccc([N+](=O)[O-])cc1`, the IC50 in the test on CCRF-CEM is over 10 µM; in the test with HCT-116 it was 8.68 µM; with MDA-MB-435 it was 7680 nM.
In the case of `COc1cccc2c1CCC(=O)/C2=C/c1ccccc1Cl`, the IC50 is 8.91 µM in the test with CCRF-CEM, 5.77 µM in the test with HCT-116 and 3350 nM in the test on MDA-MB-435.
For `COc1cccc2c1CCC(=O)/C2=C/c1ccc(N(C)C)cc1`, the results for the IC50 in the test with CCRF-CEM, in the test on HCT-116 and in the test on MDA-MB-435 were over 10 µM, 9.78 µM and 7760 nM, respectively.
For `COc1cccc2c1CCC(=O)/C2=C/c1ccc(Cl)cc1`, the half-maximal inhibitory concentration (IC50) with CCRF-CEM was found to be 8.53 µM; with HCT-116, 7.52 µM; in the test on MDA-MB-435 it was 6860 nM.
In the case of `COc1ccc2c(c1)CCC(=O)/C2=C/c1ccc(O)cc1`, the IC50 was 0.96 µM in the test on CCRF-CEM, 1.13 µM with HCT-116 and 450 nM in the test on MDA-MB-435.
Regarding `COc1ccc2c(c1)CCC(=O)/C2=C/c1ccc(N(C)C)cc1`, the IC50 worked out at 8.03 µM in the test with CCRF-CEM, 8.73 µM with HCT-116 and 5680 nM in the test on MDA-MB-435.
With `COc1ccc2c(c1)CCC(=O)/C2=C/c1ccccc1Cl`, the IC50 in the test with CCRF-CEM is 0.58 µM; in the test with HCT-116 it was 1.7 µM; in the test with MDA-MB-435, 460 nM.
On to `COc1cc(/C=C2/C(=O)CCc3ccc(OC)cc32)cc(OC)c1`, for which the IC50 in the test with CCRF-CEM amounted to 0.26 µM; in the test on HCT-116 it was 0.5 µM; with MDA-MB-435, 850 nM.
As for `COc1cccc2c1CCC(=O)/C2=C/c1ccc(Cl)c(Cl)c1`, the IC50 in the test with CCRF-CEM is over 10 µM; with HCT-116, over 10 µM; with MDA-MB-435, over 10000 nM.
In the case of `COc1ccc(/C=C2/C(=O)CCc3ccc(OC)cc32)cc1`, the IC50 in the test on CCRF-CEM came to 0.89 µM; in the test with HCT-116, 1.91 µM; in the test on MDA-MB-435, 730 nM.
Taken in the same sequence, the figures for `COc1ccc2c(c1)CCC(=O)/C2=C/c1ccccc1` were 0.92 µM, 0.47 µM and 940 nM.
For `COc1cccc2c1CCC(=O)/C2=C/c1c(Cl)cccc1Cl`, the 50% inhibitory concentration (IC50) in the test with CCRF-CEM is 8.64 µM; in the test with HCT-116, 6.71 µM; with MDA-MB-435, over 10000 nM.
As to `COc1ccc2c(c1)CCC(=O)/C2=C/c1ccc(Cl)c(Cl)c1`, the IC50 in the test on CCRF-CEM is 1.86 µM; in the test on HCT-116, 2.52 µM; with MDA-MB-435, 1230 nM.
Taken in the same sequence, the figures for `COc1ccc2c(c1)/C(=C\c1ccc(C)cc1)C(=O)CC2` were 3.77 µM, 3.68 µM and 2620 nM.
`COc1ccc2c(c1)CCC(=O)/C2=C/c1cccc(O)c1`: the IC50 in the test with CCRF-CEM amounted to 1.46 µM; in the test on HCT-116, 1.76 µM; in the test with MDA-MB-435 it was 760 nM.
As to `COc1ccc2c(c1)CCC(=O)/C2=C/c1ccc(C(F)(F)F)cc1`, the values for the IC50 with CCRF-CEM, in the test with HCT-116 and with MDA-MB-435 were 1.21 µM, 2.32 µM and 750 nM, respectively.
Taken in the same sequence, the figures for `COc1cccc2c1CCC(=O)/C2=C/c1ccccc1` were 8.69 µM, over 10 µM and 6310 nM.
Turning to `COc1ccc2c(c1)/C(=C\c1ccc(Cl)cc1)C(=O)CC2`, the 50% inhibitory concentration (IC50) was over 10 µM in the test with CCRF-CEM, 4.69 µM in the test on HCT-116 and 5830 nM with MDA-MB-435.
For the compound `COc1cccc2c1CCC(=O)/C2=C/c1ccc(OC)c(OC)c1OC`, the IC50 was over 10 µM with CCRF-CEM, over 10 µM in the test on HCT-116 and over 10000 nM with MDA-MB-435.
With `COc1ccc(/C=C2/C(=O)CCc3c(OC)cccc32)cc1O`, the IC50 was 6.31 µM with CCRF-CEM, over 10 µM in the test with HCT-116 and 5620 nM in the test with MDA-MB-435.
As to `COc1ccc2c(c1)/C(=C\c1ccc(O)c(OC)c1)C(=O)CC2`, the IC50 in the test with CCRF-CEM is 6.93 µM; in the test with HCT-116, over 10 µM; with MDA-MB-435, 4350 nM.
On to `COc1ccc2c(c1)/C(=C\c1ccc(O)cc1)C(=O)CC2`, for which the IC50 in the test on CCRF-CEM was 1.05 µM; in the test with HCT-116, 3.24 µM; in the test on MDA-MB-435, 860 nM.
Consider `COc1ccc2c(c1)/C(=C\c1ccc(Cl)cc1Cl)C(=O)CC2`, for which the IC50 with CCRF-CEM is over 10 µM; with HCT-116, over 10 µM; in the test with MDA-MB-435, over 10000 nM.
`COc1ccc2c(c1)CCC(=O)/C2=C/c1ccc(C)cc1`: the IC50 turned out to be 2.31 µM in the test with CCRF-CEM, 2.56 µM with HCT-116 and 1330 nM in the test with MDA-MB-435.
Take `COc1ccc2c(c1)/C(=C\c1ccc([N+](=O)[O-])cc1)C(=O)CC2`: the IC50 was over 10 µM in the test with CCRF-CEM, 8.95 µM with HCT-116 and over 10000 nM with MDA-MB-435.
On the same counts, the results for `COc1ccc2c(c1)CCC(=O)/C2=C/c1ccc(C(C)(C)C)cc1` are 3.1 µM, 6.7 µM and 1770 nM.
On the same counts, the results for `COc1ccc2c(c1)/C(=C\c1ccc(Cl)c(Cl)c1)C(=O)CC2` are over 10 µM, over 10 µM and over 10000 nM.
